Results published in US20240239788A1, “SMALL MOLECULE INHIBITORS OF KRAS G12D MUTANT” (Merck Sharp & Dohme LLC, priority 2021, published 2024).
Structures can show the parent of a compound that is named as a salt. Where two headings read alike, the source gives them in different places.

Tests used:
[1] = target: KRAS protein containing G12D mutation (Homo sapiens (Human), UniProt P01116, G12D); assay: SOS-catalyzed nucleotide exchange assay (GNE), TR-FRET; assay type: biochemical; details: biotinylated KRAS G12D, SOS and GTP, 60-minute incubation
Sequence of KRAS protein containing G12D mutation (P01116 other isoform, or with tags, fused parts or gaps G12D (already in the parent)): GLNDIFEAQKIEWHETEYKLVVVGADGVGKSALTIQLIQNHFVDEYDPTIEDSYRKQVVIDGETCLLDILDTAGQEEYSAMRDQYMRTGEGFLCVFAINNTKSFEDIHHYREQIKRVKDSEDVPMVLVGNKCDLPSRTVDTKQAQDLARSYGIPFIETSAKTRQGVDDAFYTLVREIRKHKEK
Experimental: Compounds are added to this complex and then after a 60-minute incubation time the mixture is treated with SOS and unlabeled GTP. Small molecule inhibitors stabilize the Bodipy-GDP complex whereas the untreated protein rapidly exchanges Bodipy-GDP for unlabeled GTP resulting in reduced TR-FRET signal.
This solution is referred to as biotinylated KRAS G12D stock solution.

[2] = system: AsPC-1 cells containing homozygous KRAS-G12D activating mutation; assay: Cellular phospho-ERK assay with 10% FBS (Examples 107a-256); assay type: cell-based
Experimental: 5% CO2 for 2 hours. […] Assay plates were read on a EnVision Multimode Plate Reader (PerkinElmer) and the ratio of p-Erk vs total Erk in each well was used as the final readout.

[3] = read-out: IC50 (nM) pERK (cell with FBS 10%), AsPC-1 cells, 10% fetal bovine serum, 2 hours, ratio of p-Erk vs total Erk
[4] = Homo sapiens, ASPC1, 2 h, read-out: IC50 (nM) pERK (cell with FBS 10%), AsPC-1 cells, 10% fetal bovine serum, 2 hours, ratio of p-Erk vs total Erk

Row | Structure (SMILES) | IC50 [1] [nM] | IC50 [2, 3] [nM] | IC50 [2, 4] [nM]
1 | C#Cc1cccc2nc(N)cc(-c3c(F)cc4c(N5CC6CCC(C5)N6)nc(OC[C@@]56CCCN5C[C@H](F)C6)nc4c3F)c12 (single isomer, unassigned) [Ex. 203b] | 3.32 | 120 | –
2 | CO[C@@H]1CCN(C[C@@]2(COc3nc(N4CC5CC[C@@](C)(C4)N5)c4cc(F)c(-c5cc(O)cc6cccc(Cl)c56)c(F)c4n3)CC2(F)F)C1 (single isomer, unassigned) [Ex. 215a] | 5.06 | 14000 | –
3 | Cc1cc2[nH]nc(C#N)c2c(-c2c(F)cc3c(N4C[C@H]5CC[C@@H](C4)N5)nc(OC[C@@]45CCCN4C[C@H](F)C5)nc3c2F)c1C(F)(F)F (single isomer, unassigned) [Ex. 227a] | 190 | 1520 | –
4 | CN(C[C@@]1(COc2nc(N3C[C@H]4CC[C@@](C)(C3)N4)c3cc(F)c(-c4cc(O)cc5cccc(Cl)c45)c(F)c3n2)CC1(F)F)[C@@H]1CCC[C@H]1O [Ex. 217b] | 675 | 8570 | –
5 | CN(C)CC1(COc2nc(N3C[C@H]4CC[C@@](C)(C3)N4)c3cc(F)c(-c4cc(O)cc5ccccc45)c(F)c3n2)CC1C(=O)O (single isomer, unassigned) [Ex. 107a] | 648 | 30000 | –
6 | C#Cc1c(F)ccc2cccc(-c3c(F)cc4c(N5CC6CC[C@@](C)(C5)N6)nc(OCC56CCCN5C(COC(=O)N(C)C)CC6)nc4c3F)c12 (single isomer, unassigned) [242b] | 93.5 | 1080 | –
7 | C[C@]12CC[C@H](CN(c3nc(OC[C@@H]4CCN(C5CCCCC5O)C4)nc4c(F)c(-c5cc(O)cc6ccccc56)c(Cl)cc34)C1)N2 (stereo partly drawn) [Example 121, 4-(6-chloro-8-fluoro-2-(((3R)-1-(2-hydroxycyclohexyl)pyrrolidin-3-yl)methoxy)-4-((1S,5R)-1-methyl-3,8-diazabicyclo[3.2.1]octan-3-yl)quinazolin-7-yl)naphthalen-2-ol, TFA] | 615 | – | 11400
8 | CCc1cccc2cc(O)cc(-c3c(F)cc4c(N5CC6CC[C@@](C)(C5)N6)nc(OC[C@@]56CCCN5C[C@H](F)C6)nc4c3F)c12 (single isomer, unassigned) [Ex. 178a] | 1.73 | 108 | –
9 | C[C@]12CCC(CN(c3nc(OC[C@@]45CCCN4C[C@H](F)C5)nc4c(F)c(-c5cc(O)cc6cc(F)cc(Cl)c56)c(F)cc34)C1)N2 (single isomer, unassigned) [Ex. 180b] | 744 | 14200 | –
10 | CCc1cccc2cccc(-c3c(F)cc4c(N5C[C@H]6CC[C@@](C)(C5)N6)nc(OC[C@@]56CCCN5C[C@H](F)C6)nc4c3F)c12 [Ex. 141, 7-(8-ethylnaphthalen-1-yl)-6,8-difluoro-2-(((2R,7aS)-2-fluorotetrahydro-1H-pyrrolizin-7a(5H)-yl)methoxy)-4-((1S,5R)-1-methyl-3,8-diazabicyclo[3.2.1]octan-3-yl)-quinazoline, TFA] | 139 | – | 16400
11 | Nc1cc(F)c(C(F)(F)F)c(-c2c(F)cc3c(N4CC5CCC(C4)N5)nc(OC[C@@]45CCCN4C[C@H](F)C5)nc3c2F)c1F (single isomer, unassigned) [Ex. 145b] | 14.1 | 358 | –
12 | C[C@]12CCC(CN(c3nc(OC[C@@]45CCCN4C[C@H](F)C5)nc4c(F)c(-c5cccc6cccc(Cl)c56)c(F)cc34)C1)N2 (mixture of isomers) [Ex. 212, 7-(8-chloronaphthalen-1-yl)-6,8-difluoro-2-(((2R, 7aS)-2-fluorotetrahydro-1H-pyrrolizin-7a(5H)-yl)-methoxy)-4-((1S,5R)-1-methyl-3,8-diazabicyclo-[3.2.1]octan-3-yl)quinazoline, 2TFA] | 180 | – | 9060
13 | C#Cc1csc2ccnc(-c3c(F)cc4c(N5C[C@H]6CC[C@@H](C5)N6)nc(OC[C@@]56CCCN5C[C@H](F)C6)nc4c3F)c12 [Ex. 152, 4-(4-((1R,5S)-3,8-diazabicyclo[3.2.1]octan-3-yl)-6,8-difluoro-2-(((2R,7aS)-2-fluorotetrahydro-1H-pyrrolizin-7a(5H)-yl)-methoxy)quinazolin-7-yl)-3-ethynylthieno[3,2-c]pyridine] | 848 | – | 5190
14 | Cc1cc2[nH]nc(C)c2c(-c2c(F)cc3c(N4CC5CCC(C4)N5)nc(OC[C@@]45CCCN4C[C@H](F)C5)nc3c2F)c1OC(F)(F)F (single isomer, unassigned) [Ex. 232a] | 932 | 30000 | –
15 | C[C@]12CC[C@H](CN(c3nc(OCC45CNCC4C5)nc4c(F)c(-c5cc(O)cc6cccc(Cl)c56)c(F)cc34)C1)N2 (mixture of isomers) [Ex. 165, 4-(2-((3-azabicyclo-[3.1.0]hexan-1-yl)-methoxy)-6,8-difluoro-4-((1S,5R)-1-methyl-3,8-diazabicyclo[3.2.1]-octan-3-yl)quinazolin-7-yl)-5-chloronaph-thalen-2-ol, TFA] | 149 | – | 15400
16 | COCCOCC1CCN(C[C@@]2(COc3nc(N4CC5CC[C@@](C)(C4)N5)c4cc(F)c(-c5c(C(F)(F)F)c(C)cc6[nH]ncc56)c(F)c4n3)CC2(F)F)C1 (single isomer, unassigned) [Ex. 222] | 8.84 | – | 2880
17 | Nc1cc(-c2c(F)cc3c(N4CC5CCC(C4)N5)nc(OC[C@@]45CCCN4C[C@H](F)C5)nc3c2F)c2c(Cl)cccc2n1 (single isomer, unassigned) [Ex. 231b] | 38.4 | 326 | –
18 | C#Cc1c(F)ccc2cccc(-c3c(F)cc4c(N5C[C@H]6CC[C@@](C)(C5)N6)nc(OC[C@@]56CCCN5[C@H](CF)CC6)nc4c3F)c12 (single isomer, unassigned) [Ex. 149] | 103 | – | 4490
19 | C[C@@]12CC[C@H](CN(c3nc(OC[C@@]45CCCN4C[C@H](F)C5)nc4c(F)c(-c5cccc6ccc(F)c(F)c56)c(F)cc34)C1)N2 [compound 197, 7-(7,8-difluoronaph-thalen-1-yl)-6,8-difluoro-2-(((2R,7aS)-2-fluorotetrahydro-1H-pyrrolizin-7a(5H)-yl)-methoxy)-4-((1S,5R)-1-methyl-3,8-diaza-bicyclo[3.2.1]octan-3-yl)quinazoline] | 52.4 | – | 4470
20 | C[C@]12CC[C@H](CN(c3nc(OC[C@@]45CCCN4C[C@H](F)C5)nc4c(F)c(-c5c6cn[nH]c6cc6cccc(Cl)c56)c(F)cc34)C1)N2 [Ex. 187, 5-chloro-4-(6,8-difluoro-2-(((2R,7aS)-2-fluorotetrahydro-1H-pyrrolizin-7a(5H)-yl)-methoxy)-4-((1S,5R)-1-methyl-3,8-diaza-bicyclo[3.2.1]octan-3-yl)quinazolin-7-yl)-1H-benzo[f]indazole] | 27.3 | – | 1100
21 | C[C@]12CCC(CN(c3nc(OC[C@]4(CN[C@H]5C[C@@H](O)C5)CC4(F)F)nc4c(F)c(-c5cc(O)cc6cccc(Cl)c56)c(F)cc34)C1)N2 (single isomer, unassigned) [Ex. 216a] | 6.65 | 3090 | –
22 | COCCNC[C@@]1(COc2nc(N3CC4CC[C@@](C)(C3)N4)c3cc(F)c(-c4c(C(F)(F)F)c(C)cc5[nH]ncc45)c(F)c3n2)CC1(F)F (single isomer, unassigned) [Ex. 213] | 4460 | – | 25600
23 | Cc1cc2[nH]nc(C)c2c(-c2c(F)cc3c(N4CC5CCC(C4)N5)nc(OC[C@@]45CCCN4C[C@H](F)C5)nc3c2F)c1C(F)(F)F (single isomer, unassigned) [Ex. 128a] | 1.28 | 43.4 | –
